# Starred links: 1 amine or outer side, 2 acyl side, 3 side chain; linkers in the order of their positions; H or OH if unused. Non-standard residues stand in square brackets, D forms with d. Groups on a side chain read outwards from the residue. No end group written: not given here. *: point of attachment. C18 diacid = O=C(O)CCCCCCCCCCCCCCCCC(=O)*; γGlu = O=C(O)[C@H](CCC(=O)[*:2])N[*:1]; αMe4Pal = C[C@](N)(Cc1ccncc1)C(=O)O; 4Pal = N[C@@H](Cc1ccncc1)C(=O)O; αMeL = CC(C)C[C@](C)(N)C(=O)O; Orn = NCCC[C@H](N)C(=O)O; AEEA = NCCOCCOCC(=O)O; Aib = CC(C)(N)C(=O)O
# Legend:
# [1] = biological target: human GcgR (Homo sapiens, UniProt P47871); experiment: Functional cAMP activity in the presence of 1% HSA; format: cell-based; details: read-out: cAMP Rel EC50, hGcgR
# Sequence of human GcgR (P47871 26-477): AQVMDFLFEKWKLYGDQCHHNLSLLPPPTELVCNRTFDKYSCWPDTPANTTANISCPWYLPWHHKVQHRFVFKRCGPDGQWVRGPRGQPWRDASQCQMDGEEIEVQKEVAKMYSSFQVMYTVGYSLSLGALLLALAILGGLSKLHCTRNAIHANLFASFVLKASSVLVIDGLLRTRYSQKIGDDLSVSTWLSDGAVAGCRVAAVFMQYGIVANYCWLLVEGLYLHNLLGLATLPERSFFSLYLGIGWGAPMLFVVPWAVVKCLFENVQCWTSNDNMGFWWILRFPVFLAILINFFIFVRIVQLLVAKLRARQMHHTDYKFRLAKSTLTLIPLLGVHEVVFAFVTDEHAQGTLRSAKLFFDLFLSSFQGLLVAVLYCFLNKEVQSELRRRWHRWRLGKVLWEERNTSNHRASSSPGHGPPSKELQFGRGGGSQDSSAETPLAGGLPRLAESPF
# [2] = biological target: T1, hGIPR (Homo sapiens, UniProt P48546); experiment: Functional cAMP activation in the presence of 0.1% casein (no HSA); format: cell-based; details: in the presence of 0.1% casein (no HSA); geometric mean; read-out: Relative cAMP EC50, hGIPR;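 further: intracellular cAMP rise after 30 min at 37 °C read by HTRF against a standard curve, scaled between buffer alone (0%) and top control ligand concentration (100%), four-parameter fit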
# T1 sequence (P48546 22-466): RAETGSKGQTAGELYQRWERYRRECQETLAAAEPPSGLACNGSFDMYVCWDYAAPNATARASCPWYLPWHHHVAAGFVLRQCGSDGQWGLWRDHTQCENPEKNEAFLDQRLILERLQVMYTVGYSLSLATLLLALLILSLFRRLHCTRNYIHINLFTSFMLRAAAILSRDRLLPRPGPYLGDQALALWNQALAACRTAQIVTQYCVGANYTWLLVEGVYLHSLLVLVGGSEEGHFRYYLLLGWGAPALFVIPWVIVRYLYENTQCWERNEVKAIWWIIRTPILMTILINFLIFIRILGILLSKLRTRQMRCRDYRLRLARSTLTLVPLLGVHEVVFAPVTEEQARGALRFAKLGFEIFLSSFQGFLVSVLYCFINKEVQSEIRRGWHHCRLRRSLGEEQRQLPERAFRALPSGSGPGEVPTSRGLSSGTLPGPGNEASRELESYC
# [3] = test system: Intestinal organoid from Göttingen minipig jejunum tissue, 2D monolayer; experiment: Cell based in vitro permeability (Papp) assay; format: in vitro ADME
# Method in brief: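 2D monolayers derived from Göttingen minipig jejunal organoids on transwell inserts. Basal samples collected at 20 min in the presence of C10. Peptide in apical and basal compartments quantified by LC/MS to give Papp.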
# [4] = biological target: T2, hGLP-1R (Homo sapiens, UniProt P43220); experiment: Functional cAMP activity in the presence of 1% HSA; format: cell-based; details: read-out: cAMP Rel EC50, hGLP-1R
# T2 sequence (P43220 24-463): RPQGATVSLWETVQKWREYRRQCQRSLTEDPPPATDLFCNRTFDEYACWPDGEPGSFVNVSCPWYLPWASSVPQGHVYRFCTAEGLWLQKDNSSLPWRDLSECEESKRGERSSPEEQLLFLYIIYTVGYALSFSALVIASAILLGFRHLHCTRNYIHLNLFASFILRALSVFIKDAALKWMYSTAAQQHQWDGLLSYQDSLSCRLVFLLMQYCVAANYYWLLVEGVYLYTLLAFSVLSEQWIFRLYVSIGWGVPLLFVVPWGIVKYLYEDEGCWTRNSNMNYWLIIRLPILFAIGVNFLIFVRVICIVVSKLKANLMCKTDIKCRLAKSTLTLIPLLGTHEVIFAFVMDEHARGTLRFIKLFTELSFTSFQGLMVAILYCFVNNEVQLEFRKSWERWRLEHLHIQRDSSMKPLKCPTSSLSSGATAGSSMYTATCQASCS
# [5] = biological target: T2, hGLP-1R; experiment: Functional cAMP activation in the presence of 0.1% casein (no HSA); format: cell-based; details: in the presence of 0.1% casein (no HSA); geometric mean; read-out: Relative cAMP EC50, hGLP-1R;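 further: intracellular cAMP rise after 30 min at 37 °C read by HTRF, normalized between buffer only (0%) and maximal control ligand (100%), four-parameter variable-slope fit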
# [6] = biological target: human GLP1-R (Homo sapiens, UniProt P43220); experiment: GLP1-R internalization assay in HEK293 cells; format: cell-based; details: for EC50: HEK293 cells expressing SNAP-GLP-1R, read-out: GLP1R Internalization EC50; for Internalization % TOP: normalized to maximum concentration of GLP-1 (100%)
# Sequence of human GLP1-R (P43220 24-463): as above
# [7] = biological target: T1, hGIPR; experiment: Functional cAMP activity in the presence of 1% HSA; format: cell-based; details: read-out: cAMP Rel EC50, hGIPR
# [8] = biological target: hGcgR (Homo sapiens, UniProt P47871); experiment: Functional cAMP activation in the presence of 0.1% casein (no HSA); format: cell-based; details: in the presence of 0.1% casein (no HSA); geometric mean; read-out: Relative cAMP EC50, hGcgR;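 further: intracellular cAMP rise after 30 min at 37 °C, read by HTRF against a cAMP standard curve, scaled from buffer only (0%) to maximal control ligand response (100%)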
# Sequence of hGcgR (P47871 26-477): as the sequence (P47871 26-477) above
Compound,EC50 [1],EC50 [2],Relative Papp (Compared to internal standard) [3],EC50 [4],EC50 [5],EC50 [6],Internalization % TOP [6],EC50 [7],EC50 [8]
H-Y[Aib]QGTFTSDYSR[αMeL]LDKK([AEEA-γGlu-C18 diacid])AQ[Aib]AFIEYLLEGGESSGAPPPSGS-NH2 [Example 361],987 nM,0.214 nM,0.10,376 nM,2.08 nM,50.4 nM,73%,46.3 nM,2.73 nM
H-Y[Aib]QGTFTSDFS[Orn][αMeL]LDKK([AEEA-γGlu-C18 diacid])AQ[Aib]AFIEYLLE[dA]GPSS[Aib]APPPSGT-NH2 [Example 214],302 nM,0.103 nM,0.07,186 nM,1.22 nM,50.1 nM,41.7%,15.1 nM,2.49 nM
H-Y[Aib]QGTFTSDFS[Orn][αMeL]LDKK([AEEA-γGlu-C18 diacid])AQ[Aib]AFIEYLLE[Aib]GPSS[Aib]APPPSGS-NH2 [Example 238],334 nM,0.0909 nM,0.06,262 nM,2.71 nM,32.1 nM,38.2%,8.78 nM,2.78 nM
CC[C@H](C)[C@H](NC(=O)[C@H](Cc1ccccc1)NC(=O)[C@H](C)NC(=O)C(C)(C)NC(=O)[C@H](CCC(N)=O)NC(=O)[C@H](C)NC(=O)[C@H](CCCCNC(=O)COCCOCCNC(=O)CC[C@H](NC(=O)CCCCCCCCCCCCCCCCC(=O)O)C(=O)O)NC(=O)[C@H](CCCCN)NC(=O)[C@H](CC(=O)O)NC(=O)[C@H](CC(C)C)NC(=O)[C@](C)(CC(C)C)NC(=O)[C@H](CCCN)NC(=O)[C@H](CO)NC(=O)[C@H](Cc1ccccc1)NC(=O)[C@H](CC(=O)O)NC(=O)[C@H](CO)NC(=O)[C@@H](NC(=O)[C@H](Cc1ccccc1)NC(=O)[C@@H](NC(=O)CNC(=O)[C@H](CCC(N)=O)NC(=O)C(C)(C)NC(=O)[C@@H](N)Cc1ccc(O)cc1)[C@@H](C)O)[C@@H](C)O)C(=O)N[C@@H](CCC(=O)O)C(=O)N[C@@H](Cc1c[nH]c2ccccc12)C(=O)N[C@@H](CC(C)C)C(=O)N[C@@H](CC(C)C)C(=O)N[C@@H](CCC(=O)O)C(=O)NCC(=O)NCC(=O)N1CCC[C@H]1C(=O)N[C@@H](CO)C(=O)N[C@@H](CO)C(=O)NCC(=O)N[C@@H](C)C(=O)N1CCC[C@H]1C(=O)N1CCC[C@H]1C(=O)N1CCC[C@H]1C(=O)N[C@@H](CO)C(=O)NCC(=O)N[C@@H](CCC(=O)O)C(N)=O [Example 119],839 nM,0.179 nM,0.15,387 nM,3.67 nM,73.5 nM,43.4%,19.7 nM,5.6 nM
Y[Aib]QGTFTSDFS[Orn][αMeL]LDKK([AEEA-AEEA-γGlu-C18 diacid])AQ[Aib]AFIEYLLE[dA]GPSSGEPPPSGS-NH2 [Example 155],1310 nM,0.177 nM,0.07,503 nM,2.98 nM,85.1 nM,54.5%,18.9 nM,5.68 nM
H-Y[Aib]QGTFTSDFS[Orn][αMeL]LDKK([AEEA-γGlu-C18 diacid])AQ[Aib]AFIEYLLE[dA]GPSSGAPPPSGS-NH2 [Example 209],433 nM,0.129 nM,0.08,276 nM,1.78 nM,83.1 nM,41.2%,23.3 nM,3.08 nM
H-Y[Aib]QGTFTSDFS[Orn][αMeL]LDKK([γGlu-AEEA-γGlu-C18 diacid])AQ[Aib]AFIEYLLE[Aib]GPSSGAPPPSGS-NH2 [Example 193],1120 nM,0.0609 nM,0.17,473 nM,5.19 nM,132 nM,50.7%,12.7 nM,4.51 nM
H-Y[Aib]QGTFTSD[4Pal]SQ[αMeL]LDKK([AEEA-γGlu-C18 diacid])AQ[αMe4Pal]AFIEYLIE[Aib]GESSGAPPPSGS-NH2 [Example 226],763 nM,0.127 nM,0.36,354 nM,1.97 nM,29.1 nM,59.3%,32.2 nM,3.08 nM
H-Y[Aib]QGTFTSD[4Pal]SQ[αMeL]LDKK([AEEA-γGlu-C18 diacid])AQ[αMe4Pal]AFIEYLIE[Aib]GESSGAPPPSGE-NH2 [Example 227],937 nM,0.17 nM,0.42,418 nM,2.34 nM,114 nM,59.4%,39.7 nM,4.22 nM
H-Y[Aib]QGTFTSDFS[Orn][αMeL]LDKK([AEEA-AEEA-γGlu-C18 diacid])AQ[Aib]AFIEYLLE[Aib]GPSSGAPPPSGT-NH2 [Example 165],1250 nM,0.0956 nM,0.09,808 nM,6.52 nM,57.5 nM,44.5%,18.6 nM,4.47 nM
H-Y[Aib]QGTFTSDFS[Orn][αMeL]LDKK([AEEA-γGlu-C18 diacid])AQ[Aib]AFIEWLLEGGPSSGAPPPTGS-NH2 [Example 250],201 nM,0.154 nM,0.11,194 nM,2.08 nM,97 nM,45%,11.7 nM,3.81 nM
H-Y[Aib]QGTFTSDFS[Orn][αMeL]LDKK([AEEA-AEEA-γGlu-C18 diacid])AQ[Aib]AFIEWLLEGGHSSGAPPPSGE-NH2 [Example 169],439 nM,0.209 nM,0.12,216 nM,6.17 nM,178 nM,49.4%,21.5 nM,11.7 nM
H-Y[Aib]QGTFTSD[4Pal]S[Orn][αMeL]LDKK([AEEA-γGlu-C18 diacid])AQ[Aib]AFIEYLLAGGPSSGEPPPSGS-NH2 [Example 154],1040 nM,0.227 nM,0.12,569 nM,4.94 nM,47.7 nM,65.9%,29.7 nM,8.72 nM
